How the values were obtained:
Type in all cases: physicochemical
[1] = Competitive slurry experiments, wet solid analysed by XRPD
Experimental: Sample preparation is carried out in a nitrogen glove box. Saturated solutions of TSC from Example 2 are prepared at a given temperature. The volume of each solution is about 1.5 mL and it is deemed saturated if excess solid remains after stirring for 2 hours. The sample is then centrifuged and the mother liquor is transferred to a vial containing equal amounts of each polymorph, about 10 mg each. The vials are capped and sealed with parafilm, and the slurries are then stirred magnetically at a given temperature for 5 days. Each sample is then centrifuged, the mother liquor decanted, and the wet solid immediately analyzed by XRPD.
Competitive slurry experiments involving Crystalline Forms A through E are carried out at three different temperatures using three different solvent systems (Table 2). […] At 50° C., the slurries in 1:1 acetone:water and 1:1 acetonitrile:water produce a mixture of Crystalline Forms A and B and Crystalline Form A, respectively. Although both solvent systems contain significant amounts of water, the slurries are carried out at a temperature at which Crystalline Form B is known to lose volatiles. […] That is probably the reason that Crystalline Form A results from the higher-temperature slurries in water-containing solvents.
Additional competitive slurry experiments are carried out between Crystalline Forms A, B, and F (Table 3). The data are consistent with the results in Example 10. […] The elevated temperature aqueous slurry data is also consistent with Example 10. Crystalline Form A is observed in aqueous media at 50° C. In the case of the 1:1 ethanol:water slurry, the XRPD pattern of the resulting material matches that of Crystalline Form A but contains several unidentified peaks.

[2] = Heating to 100° C. in a TG furnace, then XRPD; details: Heat to 100° C., hold 1 minute
Experimental: Crystalline Forms A and B are heated to 100° C. in a TG furnace, held at that temperature for 1 minute, and immediately analyzed by XRPD.

[3] = Dynamic vapor sorption (DVS) analysis; details: for Form by XRPD after DVS analysis: exposed up to 95% RH and down to 5% RH
Experimental: DVS analysis is carried out using a TA Instruments Q5000 Dynamic Vapor Sorption analyzer. The instrument is calibrated with standard weights and a sodium bromide standard for humidity. Approximately 10-25 mg (e.g., 20 mg) or 5-15 mg of sample is loaded into a metal-coated quartz pan for analysis. The sample is analyzed at 25° C. with a maximum equilibration time of one hour in 10% relative humidity (RH) steps from 5 to 95% RH (adsorption cycle) and from 95 to 5% RH (desorption cycle). The movement from one step to the next occurred either after satisfying the equilibrium criterion of 0.01% weight change or, if the equilibrium criterion is not met, after one hour. The percent weight change values are calculated using Microsoft Excel®. The temperature for the DVS analysis may impact the outcome of the results.

[4] = XRPD under a nitrogen stream of variable relative humidity
Experimental: Form H from Example 25 is measured under different relative humidities. The humidity measurements are made on a powder diffractometer X'Pert, PANalytical (G.16.SYS.S006) using CuKα radiation. Measuring conditions: tube power 40 kV/40 mA, scan range 1°-50° (2θ), step size 0.02°, time per step 2.4 seconds. The sample is measured in a 0.4 mm deep sample holder in a closed chamber under a stream of nitrogen of variable relative humidity (RH). The humidity of the nitrogen stream is controlled by varying the relative amount of humid and dry nitrogen gas. The sample is first conditioned one hour with a dry nitrogen stream and then a first XPRD is taken. The humidity of the gas stream is then changed to 50% RH and the sample is conditioned three hours to the new RH prior to a second XRPD measurement. After 10 more hours with 50% RH, a third XRPD is taken.

[5] = Solid-state stability in relative humidity jars, analysed by XRPD; details: up to 4 weeks at 25° C./60% RH and 40° C./75% RH
Experimental: The solid-state stability of TSC Crystalline Forms A and F are evaluated at 25° C./60% relative humidity (RH) and 40° C./75% RH.
To a 1-dram glass vial is added approximately 20 mg of TSC Crystalline Form A or F. The open vials are placed in relative humidity (RH) jars. The RH in each jar is controlled by a saturated salt solution (sodium bromide for 60% RH and sodium chloride for 75% RH). The RH jars are purged with nitrogen and sealed. The sealed RH jars are placed in ovens set at the appropriate temperatures. The materials are analyzed at given time points by XRPD.

[6] = Equilibrium solubility shake-flask method, 24-hour slurry, XRPD result; details: water and ethanol
Experimental: Solubility is evaluated using shake-flask method at room temperature. Individual samples are prepared as follows: Approximately 20 mg of TSC Forms A, F, and J are placed in a 1-dram glass vial. To each vial is added 1.5 mL of media. The vials are then placed in an incubation chamber at room temperature with shaking at 150 rpm. After 24 hours the vials are removed and each slurry is vacuum filtered. The mother liquor is diluted 1:10 with the respective media for that sample and analyzed by HPLC. Water used is HPLC grade. Ethanol used in absolute, HPLC grade.

[7] = Physical stability of Crystalline Form F under slurry conditions, XRPD; details: anhydrous ethanol and ethanol with 1 and 5% water, ambient temperature, up to 4 days
Experimental: The physical stability of Crystalline Form F is evaluated when it is slurried in three solvent systems (anhydrous ethanol and ethanol containing both 1 and 5% water by volume) at ambient temperature.
To a 1-dram glass vial is added approximately 20 mg of TSC Crystalline Form F and 1 mL of a given solvent. The slurry is stirred at room temperature for a given amount of time. The vial is then centrifuged, the mother liquor decanted, and the wet solid is analyzed by XRPD.

Compound: CC(/C=C/C=C(\C)C(=O)[O-])=C\C=C\C=C(C)\C=C\C=C(/C)C(=O)[O-].[Na+].[Na+] [Crystalline Form B, trans sodium crocetinate]
- Relative stability of the forms ([1]; aqueous conditions): most stable form
- Relative stability of the forms ([1]; between 2 and 55° C. in 1:1 ethanol:water (v/v)): more stable than Forms A, C, D, E, and F
- XRPD pattern after heating [2]: converts to Crystalline Form F

Compound: CC(/C=C/C=C(\C)C(=O)[O-])=C\C=C\C=C(C)\C=C\C=C(/C)C(=O)[O-].[Na+].[Na+] [Example 20, trans sodium crocetinate]
- Form by XRPD after DVS analysis [3]: remains unchanged

Compound: CC(/C=C/C=C(\C)C(=O)[O-])=C\C=C\C=C(C)\C=C\C=C(/C)C(=O)[O-].[Na+].[Na+] [Form H, trans sodium crocetinate]
- Form on exposure to different relative humidities [4]: changes form
- Form by XRPD after humidity exposure ([4]; 0% RH, dry nitrogen stream, one hour): Form G
- Form by XRPD after humidity exposure ([4]; 50% RH, 10 more hours (third XRPD)): no difference between the second and third XRPDs
- Form by XRPD after humidity exposure ([4]; 50% RH, three hours): Form E

Compound: trans sodium crocetinate [Crystalline Form A]
- Solid-state stability of the form [5]: remain unchanged
- Relative stability of the forms ([1]; between 2 and 50° C. in methanol): more stable than Forms B through E
- Relative stability of the forms ([1]; between 2 and 55° C. in absolute ethanol and absolute ethanol containing either 10% methanol or toluene): more stable than Forms B through F
- Relative stability of the forms ([1]; non-aqueous conditions): most stable form
- maximum water absorption ([3]; DVS, 25° C., 5 to 95% RH): about 2.5%
- Form by XRPD after DVS analysis [3]: remains unchanged
- XRPD pattern after heating [2]: remains unchanged
- Form after 24-hour slurry experiments [6]: remain unchanged

Compound: trans sodium crocetinate [Crystalline Form F]
- Solid-state stability of the form [5]: remain unchanged
- Form by XRPD after DVS analysis [3]: remains unchanged
- Form after 24-hour slurry experiments [6]: remain unchanged
- Physical stability of the form when slurried [7]: remains unchanged

Compound: trans sodium crocetinate [Crystalline Form J]
- Form after 24-hour slurry experiments [6]: exhibits form conversion

Source: patent US20240300882A1, “CRYSTALLINE FORMS OF A DIFFUSION ENHANCING COMPOUND” (DIFFUSION PHARMACEUTICALS LLC, priority 2021, published 2024)
